Laboratory results taken from US20110039920A1, “INHIBITORS OF IKK-BETA SERINE-THERONINE PROTEIN KINASE” (CHROMA THERAPEUTICS LTD., priority 2008, published 2011).

What was measured:
[1] = test system: THP-1 TNFα release; experiment: LPS-stimulation of THP-1 cells, TNF-α by ELISA; assay type: cell-based; details: Homo sapiens, inhibitor 2 hrs before LPS 1 μg/ml, 6 hrs, read-out: Inhibitor activity versus THP-1 TNFα release
Method: THP-1 cells were plated in 100 μl at a density of 4×10^4 cells/well in V-bottomed 96 well tissue culture treated plates and incubated at 37° C. in 5% CO2 for 16 hrs. 2 hrs after the addition of the inhibitor in 100 μl of tissue culture media, the cells were stimulated with LPS (E coli strain 005:65, Sigma) at a final concentration of 1 μg/ml and incubated at 37° C. in 5% CO2 for 6 hrs. TNF-α levels were measured from cell-free supernatants by sandwich ELISA (R&D Systems #QTA00B)

[2] = test system: human whole blood TNFα release; experiment: LPS-stimulation of human whole blood, TNF-α by ELISA; assay type: cell-based; details: inhibitor 2 hrs before LPS 100 ng/ml, 6 hrs, read-out: Inhibitor activity versus human whole blood TNFα release
Method: Whole blood was taken by venous puncture using heparinised vacutainers (Becton Dickinson) and diluted in an equal volume of RPMI1640 tissue culture media (Sigma). 100 μl was plated in V-bottomed 96 well tissue culture treated plates. 2 hrs after the addition of the inhibitor in 100 μl of RPMI1640 media, the blood was stimulated with LPS (E coli strain 005:B5, Sigma) at a final concentration of 100 ng/ml and incubated at 37° C. in 5% CO2 for 6 hrs. TNF-α levels were measured from cell-free supernatants by sandwich ELISA (R&D Systems #QTA00B)

IC50 [1]: 500 to 1000 nM | IC50 [2]: 500 to 1000 nM
SMILES: C[C@H](NCc1cccc(-c2cc(C(N)=O)c(NC(N)=O)s2)c1)C(=O)OC1CCCC1 [Example 11, Cyclopentyl N-{3-[4-carbamoyl-5-(carbamoylamino)-2-thienyl]benzyl}-L-alaninate]
